US4661487A (priority 1984, dated 1987)
Where “and” joins values, the source holds several entries; their conditions need not be identical. Equal entries are not always repeated. Structures can show the parent of a compound that is named as a salt.

How the values were obtained:
[1] = system: collagen-induced aggregation of human platelets; experiment: Inhibition of collagen-induced aggregation of human platelets in vitro (method of Born, platelet-rich human plasma); format: cell-based
Description: Inhibition of the collagen-induced aggregation of human platelets by the combination of 4,5-dihydro-6-[4-(1-imidazolyl)-thien-2-yl]-5-methyl-3(2H)-pyridazinone hydrochloride (D) with lofexidine (A).
The inhibition of collagen-induced platelet aggregation in vitro was carried out by the method of Born (Nature, 194, 927-929 (1962)) on platelet-rich human plasma with 4,5-dihydro-6-[4-(1-imidazolyl)-thien-2-yl]-5-methyl-3(2H)-pyridazinone hydrochloride (D), lofexidine (A) and with mixtures of A and D.
In each case the mean value of 4 independent determinations has been given. In the investigations of the mixtures, the concentration of A was constant at 1×10^-5 mole/l.

[2] = system: spontaneously hypertensive rats; experiment: Heart rate-modifying action in spontaneously hypertensive rats; format: in vivo, spontaneously hypertensive rats (SHR rats)
Description: (§1) The substances were administered orally with a probang to fasting spontaneously hypertensive rats. The animals were fasted 17 hours before the start of the experiment. All the substances were dissolved in 1% strength carboxymethylcellulose (MH 300), and the administration volume was 10 ml/kg. The starting values of the blood pressure and heart rate were recorded directly before the administration. The action of the substance was measured 1, 2, 4, 7 and 24 hours after the administration. The measurement was performed non-invasively with a W+W Recorder 8002, it being possible to measure the systolic blood pressure and the heart rate. The animals were offered food again 4 hours after administration of the substance. The values can be seen from Table 1, page 5. […] The experiment was carried out by the same method as in Example 1, and the values can be seen in Table 2.

[3] = system: spontaneously hypertensive rats; experiment: Hypotensive action (systolic blood pressure, W+W Recorder 8002) in spontaneously hypertensive rats; format: in vivo, spontaneously hypertensive rats (SHR rats)
Description: as §1

[4] = peripheral vasodilation; cited from earlier work

Structure (SMILES): CC(Oc1c(Cl)cccc1Cl)C1=NCCN1.Cl (racemic) [Substance A, (±)-2-[1-(2,6-dichlorophenoxy)-ethyl]-1,3-diazacyclopent-2-ene hydrochloride]
- % inhibition of collagen-induced platelet aggregation ([1]; A at 1 × 10^-5 mole/l, D 0, mean of 4 determinations): 3%
- Heart rate, Δ after administration of the substance ([2]; 0.1 mg/kg p.o., 1 hour): +10 ± 13 beats/minute
- Heart rate, Δ after administration of the substance ([2]; 0.1 mg/kg p.o., 2 hours): +37 ± 27 beats/minute
- Heart rate, Δ after administration of the substance ([2]; 0.1 mg/kg p.o., 4 hours): +12 ± 12 beats/minute
- Heart rate, Δ after administration of the substance ([2]; 0.1 mg/kg p.o., 7 hours): -14 ± 12 beats/minute
- Heart rate, Δ after administration of the substance ([2]; 1.0 mg/kg p.o., 1 hour, hydrochloride): -22 ± 18 beats/minute and -22 ± 8 beats/minute
- Heart rate, Δ after administration of the substance ([2]; 1.0 mg/kg p.o., 2 hours): -6 ± 13 beats/minute
- Heart rate, Δ after administration of the substance ([2]; 1.0 mg/kg p.o., 4 hours): -2 ± 15 beats/minute
- Heart rate, Δ after administration of the substance ([2]; 1.0 mg/kg p.o., 7 hours): -10 ± 16 beats/minute
- Systolic blood pressure, Δ after administration of the substance ([3]; 0.1 mg/kg p.o., 1 hour): -18.8 ± 16.6 mmHg
- Systolic blood pressure, Δ after administration of the substance ([3]; 0.1 mg/kg p.o., 2 hours): -4.0 ± 18.6 mmHg
- Systolic blood pressure, Δ after administration of the substance ([3]; 0.1 mg/kg p.o., 4 hours): -11.8 ± 23.2 mmHg
- Systolic blood pressure, Δ after administration of the substance ([3]; 0.1 mg/kg p.o., 7 hours): -10.8 ± 26.9 mmHg
- Systolic blood pressure, Δ after administration of the substance ([3]; 1.0 mg/kg p.o., 1 hour): -28.4 ± 13.1 mmHg
- Systolic blood pressure, Δ after administration of the substance ([3]; 1.0 mg/kg p.o., 2 hours): -22.8 ± 11.8 mmHg
- Systolic blood pressure, Δ after administration of the substance ([3]; 1.0 mg/kg p.o., 4 hours): -23.6 ± 15.5 mmHg
- Systolic blood pressure, Δ after administration of the substance ([3]; 1.0 mg/kg p.o., 7 hours): -22.2 ± 17.4 mmHg

Structure (SMILES): CC1CC(=O)NN=C1c1ccc(-n2ccnc2)cc1 (stereo not drawn) [Substance B, 4,5-dihydro-6-[4-(1-imidazolyl)-phenyl]-5-methyl-3(2H)-pyridazinone]
- Heart rate, Δ after administration of the substance ([2]; 10.0 mg/kg p.o., 1 hour): +113 ± 14 beats/minute
- Heart rate, Δ after administration of the substance ([2]; 10.0 mg/kg p.o., 2 hours): +108 ± 10 beats/minute
- Heart rate, Δ after administration of the substance ([2]; 10.0 mg/kg p.o., 4 hours): +85 ± 21 beats/minute
- Heart rate, Δ after administration of the substance ([2]; 10.0 mg/kg p.o., 7 hours): +129 ± 24 beats/minute
- Heart rate, Δ after administration of the substance ([2]; 10.0 mg/kg p.o., 24 hours): +16 ± 16 beats/minute
- Systolic blood pressure, Δ after administration of the substance ([3]; 10.0 mg/kg p.o., 1 hour): -95.4 ± 3.4 mmHg
- Systolic blood pressure, Δ after administration of the substance ([3]; 10.0 mg/kg p.o., 2 hours): -97.2 ± 4.6 mmHg
- Systolic blood pressure, Δ after administration of the substance ([3]; 10.0 mg/kg p.o., 4 hours): -98.4 ± 5.6 mmHg
- Systolic blood pressure, Δ after administration of the substance ([3]; 10.0 mg/kg p.o., 7 hours): -93.0 ± 5.6 mmHg
- Systolic blood pressure, Δ after administration of the substance ([3]; 10.0 mg/kg p.o., 24 hours): -35.8 ± 6.6 mmHg

Structure (SMILES): CC1CC(=O)NN=C1c1cc(-n2ccnc2)cs1 (stereo not drawn) [Substance C, 4,5-dihydro-6-[4-(1-imidazolyl)-thien-2-yl]-5-methyl-3(2H)-pyridazinone]
- Heart rate, Δ after administration of the substance ([2]; 10.0 mg/kg p.o., 1 hour): +104 ± 21 beats/minute
- Heart rate, Δ after administration of the substance ([2]; 10.0 mg/kg p.o., 2 hours): +91 ± 10 beats/minute
- Heart rate, Δ after administration of the substance ([2]; 10.0 mg/kg p.o., 4 hours): +70 ± 12 beats/minute
- Heart rate, Δ after administration of the substance ([2]; 10.0 mg/kg p.o., 7 hours): +36 ± 13 beats/minute
- Systolic blood pressure, Δ after administration of the substance ([3]; 10.0 mg/kg p.o., 1 hour): -48.1 ± 16.2 mmHg
- Systolic blood pressure, Δ after administration of the substance ([3]; 10.0 mg/kg p.o., 2 hours): -66.2 9.9 mmHg
- Systolic blood pressure, Δ after administration of the substance ([3]; 10.0 mg/kg p.o., 4 hours): -93.9 ± 6.8 mmHg
- Systolic blood pressure, Δ after administration of the substance ([3]; 10.0 mg/kg p.o., 7 hours): -98.9 ± 9.1 mmHg

Structure (SMILES): CC1CC(=O)NN=C1c1cc(-n2ccnc2)cs1 (stereo not drawn) [Substance D, 4,5-dihydro-6-[4-(1-imidazolyl)-thien-2-yl]-5-methyl-3(2H)-pyridazinone hydrochloride]
- IC50 ([1]; Homo sapiens, Platelet, read-out: concentration for a half-maximum inhibition (IC50) of the collagen-induced platelet aggregation): 46 nM

Structure (SMILES): NNc1nnc(NN)c2ccccc12 [dihydralazine]
- side effect in hypertension therapy [4]: reflex tachycardia

Structure (SMILES): NNc1nncc2ccccc12 [hydralazine]
- side effect in hypertension therapy [4]: reflex tachycardia

Structure (SMILES): Nc1cc(N2CCCCC2)nc(N)[n+]1[O-] [minoxidil]
- side effect in hypertension therapy [4]: reflex tachycardia
